In BindingDB's records for doi:10.1016/j.bmc.2018.05.045 (University of Arizona, 2018):
Where a SMILES comes first, the peptide text is derived from it.

Columns and labels:
[1] = biological target: T1, Kappa-type opioid receptor (Homo sapiens, UniProt P41145); experiment: Displacement of [3H]U69593 from KOR (unknown origin) expressed in HEK cells
[2] = biological target: T1, Kappa-type opioid receptor; experiment: Agonist activity at KOR (unknown origin) expressed in HEK cells assessed as reduction in cAMP accumulation by split luciferase assay

T1 sequence (P41145 whole entry): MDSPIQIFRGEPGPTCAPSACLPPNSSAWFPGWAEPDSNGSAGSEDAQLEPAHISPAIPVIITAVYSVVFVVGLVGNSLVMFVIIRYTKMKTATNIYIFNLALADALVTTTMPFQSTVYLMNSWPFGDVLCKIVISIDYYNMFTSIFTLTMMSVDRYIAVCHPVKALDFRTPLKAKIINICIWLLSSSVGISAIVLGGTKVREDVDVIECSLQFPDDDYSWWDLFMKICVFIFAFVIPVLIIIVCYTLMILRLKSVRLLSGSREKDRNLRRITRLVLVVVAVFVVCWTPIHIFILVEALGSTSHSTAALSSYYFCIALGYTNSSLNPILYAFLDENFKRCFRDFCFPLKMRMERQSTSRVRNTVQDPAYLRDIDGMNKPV

SMILES: CC1(C)SSC(C)(C)[C@H](NC(=O)[C@@H](N)Cc2ccc(O)cc2)C(=O)NCC(=O)N[C@@H](Cc2ccccc2)C(=O)N2CCN(CC2)C(=O)[C@H](Cc2ccccc2)NC(=O)CNC(=O)[C@H]1NC(=O)[C@@H](N)Cc1ccc(O)cc1 (HELM PEPTIDE1{Y.[Pen].G.F}|PEPTIDE2{Y.[Pen].G.F}|CHEM1{[C1CN([*:2])CCN1[*:1]]}$PEPTIDE1,PEPTIDE2,2:R3-2:R3|PEPTIDE1,CHEM1,4:R2-1:R1|PEPTIDE2,CHEM1,4:R2-1:R2$$$V2.0)
- Ki [1]: 5.6 nM
- EC50 [2]: 269 nM
